Source: US8003799B2, “Picolinic acid derivatives and their use as fungicides” (Bayer SAS, priority 2000, dated 2011)

How the values were obtained:
[1] = tested on: Erisyphe graminis f. sp. tritici; assay: In vivo test on Erisyphe graminis f. sp. tritici (powdery mildew of wheat); conditions: dose of 500 g/ha; wheat plants (Audace variety) sprayed 24 hours before contamination; grading 7 to 14 days after contamination vs control plants
Procedure: In Vivo Test on […] Graminis f. Sp. Tritici (Powdery Mildew of Wheat) […] Wheat plants (Audace variety) in starter cups, sown on 50/50 peat soil-pozzulana substrate and grown at 12° C., are treated at the 1-leaf stage (10 cm tall) by spraying with the aqueous suspension described above. Plants, used as controls, are treated with an aqueous solution not containing the active material. After 24 hours, the plants are contaminated by dusting them with […] graminis f. sp. tritici spores, the dusting being carried out using diseased plants. Grading is carried out 7 to 14 days after the contamination, in comparison with the control plants.

Septoria tritici = assay: In vivo test on Septoria tritici (septoria disease of wheat); conditions: dose of 500 g/ha; wheat plants (Scipion variety) sprayed 24 hours before contamination; grading 15 to 20 days after contamination vs control plants
Procedure: In Vivo Test on Septoria Tritici (Septoria Disease of Wheat) […] Wheat plants (Scipion variety) in starter cups, sown on a 50/50 peat soil-pozzolana substrate and grown at 12° C., are treated at the 1-leaf stage (10 cm tall) by spraying with the aqueous suspension described above. Plants, used as controls, are treated with an aqueous solution not containing the active material. After 24 hours, the plants are contaminated by spraying them with an aqueous suspension of Septoria tritici spores (500,000 spores per mL). The spores are collected from a 15-day-old culture and are suspended in a nutrient solution composed of: • 1.5 g/L of gelatin • 0.5 g/L of sodium oleate • 24 g/L of PDB The contaminated wheat plants are incubated for 72 hours at about 20° C. and at 100% relative humidity, and then for 15 days at 80% relative humidity. Grading is carried out 15 to 20 days after the contamination, in comparison with the control plants.

Nc1ccnc(C(=O)Nc2ccc(Oc3ccc(C(F)(F)F)cc3)cc2)c1O [Compound 108, 4-amino-3-hydroxy-N-para-[4-(trifluoromethyl)phenoxy]phenylpicolinamide]
good (at least 50%) or total protection [1]: at least 50% | good (at least 50%) protection (Septoria tritici): at least 50%
